Broadly, the Ki is the dissociation constant of the complex between target and ligand, obtained from inhibition or displacement.

In the test the target is T1, GST-tagged-Wee1 kinase (Homo sapiens, UniProt P30291).
T1 construct: purchased Carnabio 05-177
T1 sequence (P30291 whole entry): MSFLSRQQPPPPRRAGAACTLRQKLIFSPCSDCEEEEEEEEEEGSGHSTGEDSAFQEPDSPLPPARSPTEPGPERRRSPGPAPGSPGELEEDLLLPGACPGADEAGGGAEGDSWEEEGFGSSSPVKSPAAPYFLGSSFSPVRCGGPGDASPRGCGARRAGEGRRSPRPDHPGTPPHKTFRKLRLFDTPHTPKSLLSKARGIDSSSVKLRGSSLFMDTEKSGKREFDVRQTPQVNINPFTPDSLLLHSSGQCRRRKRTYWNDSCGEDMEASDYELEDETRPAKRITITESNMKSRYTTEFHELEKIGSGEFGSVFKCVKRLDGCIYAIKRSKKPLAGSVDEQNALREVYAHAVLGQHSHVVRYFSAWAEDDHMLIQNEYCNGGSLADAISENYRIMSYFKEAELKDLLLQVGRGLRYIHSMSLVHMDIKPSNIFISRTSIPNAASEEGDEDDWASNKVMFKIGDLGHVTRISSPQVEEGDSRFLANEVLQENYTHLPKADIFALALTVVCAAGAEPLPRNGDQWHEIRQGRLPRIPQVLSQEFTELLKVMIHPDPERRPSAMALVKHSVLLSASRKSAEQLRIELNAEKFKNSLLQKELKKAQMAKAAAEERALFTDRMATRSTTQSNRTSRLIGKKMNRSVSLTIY
In words: Wee1 time-resolved fluorescence equilibrium binding assay (displacement of Oregon Green-labeled ATP-competitive kinase probe). The note with it: enzyme binding data; GST-tagged-Wee1 kinase 2 nM, fluorescent probe 300 nM, inhibitor 0.003 to 10 micromolar, 1 hour incubation; read-out: Wee-1 binding (Ki nM). How it is done: Wee1 kinase was assayed using a time-resolved fluorescence equilibrium binding assay monitoring displacement of a rapidly reversible Oregon Green-labeled ATP-competitive kinase probe (N-(2-(2-(2-(4-(4-(5-chloro-4-(2-(1-hydroxycyclobutyl)thiazol-5-yl)-1H-pyrrolo[2,3-b]pyridin-2-yl)phenyl)piperazin-1-yl)ethoxy)ethoxy)ethyl)-2′,7′-difluoro-3′,6′-dihydroxy-3-oxo-3H-spiro[isobenzofuran-1,9′-xanthene]-5-carboxamide) by competitive Wee1 inhibitors.
Table 1 depicts enzyme binding data (Ki)for exemplary compounds.
For the compound `C=Cc1cn(-c2c(F)cccc2Cl)c(=O)c2cnc(Nc3ccc4c(c3)CN(C)CC43CC3)nc12` [Example 63, 6-(2-chloro-6-fluorophenyl)-8-ethenyl-2-[(2′-methyl-2′,3′-dihydro-1′H-spiro[cyclopropane-1,4′-isoquinolin]-7′-yl)amino]pyrido[4,3-d]pyrimidin-5(6H)-one], the Ki amounted to 0.9 nM. As for `O=c1c2cnc(Nc3ccc4c(c3)CNCC4)nc2c(CF)cn1-c1c(Cl)cccc1Cl` [Example 109, 6-(2,6-dichlorophenyl)-8-(fluoromethyl)-2-(1,2,3,4-tetrahydroisoquinolin-7-ylamino)pyrido[4,3-d]pyrimidin-5(6H)-one], the inhibition constant Ki was 0.3 nM.

Consider `CC(O)c1cn(-c2c(Cl)cccc2Cl)c(=O)c2cnc(Nc3ccc(N4CCN(C)CC4)cc3)nc12` (centres unmarked) [Example 128, 6-(2,6-dichlorophenyl)-8-(1-hydroxyethyl)-2-{[4-(4-methylpiperazin-1-yl)phenyl]amino}pyrido[4,3-d]pyrimidin-5(6H)-one], for which the inhibitory constant (Ki) turned out to be 2 nM. Turning to `CN(C)C1Cc2ccc(Nc3ncc4c(=O)n(-c5c(Cl)cccc5Cl)cc(CF)c4n3)cc2C1` (centres unmarked) [Example 112, 6-(2,6-dichlorophenyl)-2-{[2-(dimethylamino)-2,3-dihydro-1H-inden-5-yl]amino}-8-(fluoromethyl)pyrido[4,3-d]pyrimidin-5(6H)-one], the inhibition constant (Ki) stood at 0.4 nM. For `Cc1cn(-c2cccc3ccccc23)c(=O)c2cnc(Nc3ccc4c(c3)CNCC4)nc12` [Example 100, 8-methyl-6-(naphthalen-1-yl)-2-(1,2,3,4-tetrahydroisoquinolin-7-ylamino)pyrido[4,3-d]pyrimidin-5(6H)-one] the value was 4.3 nM; for `CNC(=O)CSc1ccc(Nc2ncc3c(=O)n(-c4c(Cl)cccc4Cl)cc(C)c3n2)cc1` [Example 114, 2-[(4-{[6-(2,6-dichlorophenyl)-8-methyl-5-oxo-5,6-dihydropyrido[4,3-d]pyrimidin-2-yl]amino}phenyl)sulfanyl]-N-methylacetamide], 0.8 nM. Turning to `CC1(C)CNCc2cc(Nc3ncc4c(=O)n(-c5c(Cl)cccc5Cl)cc(CO)c4n3)ccc21` [Example 58, 6-(2,6-dichlorophenyl)-2-[(4,4-dimethyl-1,2,3,4-tetrahydroisoquinolin-7-yl)amino]-8-(hydroxymethyl)pyrido[4,3-d]pyrimidin-5(6H)-one], the Ki amounted to 0.1 nM. As to `Cc1cn(-c2c(F)cccc2Cl)c(=O)c2cnc(Nc3ccc(N4CCC(N(C)C)CC4)cc3)nc12` [Example 69, 6-(2-chloro-6-fluorophenyl)-2-({4-[4-(dimethylamino)piperidin-1-yl]phenyl}amino)-8-methylpyrido[4,3-d]pyrimidin-5(6H)-one], the Ki is 2.4 nM. In the case of `Cc1cn(-c2cccc3cccnc23)c(=O)c2cnc(Nc3ccc4c(c3)CN(C)CC43CC3)nc12` [Example 97, 8-methyl-2-[(2′-methyl-2′,3′-dihydro-1′H-spiro[cyclopropane-1,4′-isoquinolin]-7′-yl)amino]-6-(quinolin-8-yl)pyrido[4,3-d]pyrimidin-5(6H)-one], the inhibition constant Ki was 28.2 nM. Turning to `Cc1cn(-c2ccccc2O)c(=O)c2cnc(Nc3ccc4c(c3)CNCC4)nc12` [Example 117, 6-(2-hydroxyphenyl)-8-methyl-2-(1,2,3,4-tetrahydroisoquinolin-7-ylamino)pyrido[4,3-d]pyrimidin-5(6H)-one], the inhibition constant Ki worked out at 2 nM.

On to `Cc1cn(-c2c(Cl)cccc2Cl)c(=O)c2nnc(Nc3ccc4c(c3)CN(C)CC43CC3)nc12` [Example 135, 7-(2,6-dichlorophenyl)-5-methyl-3-[(2′-methyl-2′,3′-dihydro-1′H-spiro[cyclopropane-1,4′-isoquinolin]-7′-yl)amino]pyrido[4,3-e][1,2,4]triazin-8(7H)-one], for which the inhibition constant (Ki) was 5.7 nM.

`CN1Cc2cc(Nc3ncc4c(=O)n(-c5c(Cl)cccc5Cl)cc(C(F)F)c4n3)ccc2C2(CC2)C1` [Example 94, 6-(2,6-dichlorophenyl)-8-(difluoromethyl)-2-[(2′-methyl-2′,3′-dihydro-1′H-spiro[cyclopropane-1,4′-isoquinolin]-7′-yl)amino]pyrido[4,3-d]pyrimidin-5(6H)-one]: the Ki was 0.568 nM.

`C=Cc1cn(-c2c(F)cccc2Cl)c(=O)c2cnc(Nc3ccc(N4CCN(C)CC4)cc3)nc12` [Example 62, 6-(2-chloro-6-fluorophenyl)-8-ethenyl-2-{[4-(4-methylpiperazin-1-yl)phenyl]amino}pyrido[4,3-d]pyrimidin-5(6H)-one]: the inhibitory constant (Ki) was determined as 0.3 nM. For `Cc1cn(-c2c(Cl)cccc2Cl)c(=O)c2cnc(Nc3ccc4c(c3)CN(C3CCN(C)CC3)C4)nc12` [Example 137, 6-(2,6-dichlorophenyl)-8-methyl-2-{[2-(1-methylpiperidin-4-yl)-2,3-dihydro-1H-isoindol-5-yl]amino}pyrido[4,3-d]pyrimidin-5(6H)-one] the value was 0.4 nM; for `Cc1cn(-c2ccccc2-c2cnco2)c(=O)c2cnc(Nc3ccc4c(c3)CNCC4)nc12` [Example 105, 8-methyl-6-[2-(1,3-oxazol-5-yl)phenyl]-2-(1,2,3,4-tetrahydroisoquinolin-7-ylamino)pyrido[4,3-d]pyrimidin-5(6H)-one], 122 nM; for `C=Cc1cn(-c2c(Cl)cccc2Cl)c(=O)c2cnc(Nc3ccc(N4CCC(N(C)C)CC4)cc3)nc12` [Example 50, 6-(2,6-dichlorophenyl)-2-({4-[4-(dimethylamino)piperidin-1-yl]phenyl}amino)-8-ethenylpyrido[4,3-d]pyrimidin-5(6H)-one], 0.5 nM. For `C=Cc1cn(-c2c(F)cccc2Cl)c(=O)c2cnc(Nc3ccc(N4CCC(N(C)C)CC4)cc3)nc12` [Example 60, 6-(2-chloro-6-fluorophenyl)-2-({4-[4-(dimethylamino)piperidin-1-yl]phenyl}amino)-8-ethenylpyrido[4,3-d]pyrimidin-5(6H)-one] the value was 0.5 nM; for `Cc1cn(-c2c(F)cccc2Cl)c(=O)c2cnc(Nc3ccc4c(c3)CC(N(C)C)C4)nc12` (centres unmarked) [Example 68, 6-(2-chloro-6-fluorophenyl)-2-{[2-(dimethylamino)-2,3-dihydro-1H-inden-5-yl]amino}-8-methylpyrido[4,3-d]pyrimidin-5(6H)-one], 0.9 nM; for `C=Cc1cn(-c2c(Cl)cccc2Cl)c(=O)c2cnc(Nc3ccc4c(c3)CNCC43CC3)nc12` [Example 51, 6-(2,6-dichlorophenyl)-2-(2′,3′-dihydro-1′H-spiro[cyclopropane-1,4′-isoquinolin]-7′-ylamino)-8-ethenylpyrido[4,3-d]pyrimidin-5(6H)-one], 0.4 nM. Under `Cc1cn(-c2c(Cl)cccc2Cl)c(=O)c2cnc(Nc3ccc4c(c3)CNC4(C)C)nc12` [Example 121, 6-(2,6-dichlorophenyl)-2-[(1,1-dimethyl-2,3-dihydro-1H-isoindol-5-yl)amino]-8-methylpyrido[4,3-d]pyrimidin-5(6H)-one] stands 0.1 nM.

For `CN1Cc2cc(Nc3ncc4c(=O)n(-c5c(Cl)cccc5Cl)cc(CF)c4n3)ccc2C2(CC2)C1` [Example 113, 6-(2,6-dichlorophenyl)-8-(fluoromethyl)-2-[(2′-methyl-2′,3′-dihydro-1′H-spiro[cyclopropane-1,4′-isoquinolin]-7′-yl)amino]pyrido[4,3-d]pyrimidin-5 (6H)-one], the Ki worked out at 0.4 nM. Take `Cc1cn(-c2c(F)cccc2Cl)c(=O)c2cnc(Nc3ccc4c(c3)CCNC4)nc12` [Example 72, 6-(2-chloro-6-fluorophenyl)-8-methyl-2-(1,2,3,4-tetrahydroisoquinolin-6-ylamino)pyrido[4,3-d]pyrimidin-5(6H)-one]: the Ki was 5.1 nM.

`Cc1cn(-c2c(Cl)cccc2Cl)c(=O)c2cnc(Nc3ccc(SCCN(C)C)cc3)nc12` [Example 92, 6-(2,6-dichlorophenyl)-2-[(4-{[2-(dimethylamino)ethyl]sulfanyl}phenyl)amino]-8-methylpyrido[4,3-d]pyrimidin-5(6H)-one]: the inhibition constant (Ki) was 0.378 nM.

As to “6-(2,6-dichlorophenyl)-8-methyl-2-(1,2,3,4-tetrahydroisoquinolin-6-ylamino)pyrido[4,3-d]pyrimidin-5(6H)-one [Example 76]”, the Ki worked out at 0.5 nM.

As to `Cc1cccc(Cl)c1-n1cc(C)c2nc(Nc3ccc4c(c3)CNCC4)ncc2c1=O` [Example 127, 6-(2-chloro-6-methylphenyl)-8-methyl-2-(1,2,3,4-tetrahydroisoquinolin-7-ylamino)pyrido[4,3-d]pyrimidin-5(6H)-one], the Ki was determined as 0.3 nM.

With `Cc1cn(-c2c(Cl)cccc2Cl)c(=O)c2cnc(Nc3ccc4c(c3)CNCC4)nc12` [Example 80, 6-(2,6-dichlorophenyl)-8-methyl-2-(1,2,3,4-tetrahydroisoquinolin-7-ylamino)pyrido[4,3-d]pyrimidin-5(6H)-one], the Ki came out at 0.5 nM. `COC(=O)c1cc(Nc2ncc3c(=O)n(-c4c(Cl)cccc4Cl)cc(C)c3n2)ccc1N1CCN(C)CC1` [Example 129, methyl 5-{[6-(2,6-dichlorophenyl)-8-methyl-5-oxo-5,6-dihydropyrido[4,3-d]pyrimidin-2-yl]amino}-2-(4-methylpiperazin-1-yl)benzoate]: the inhibitory constant (Ki) is 0.2 nM.

For the compound `Cc1cn(-c2c(F)cccc2Cl)c(=O)c2cnc(Nc3ccc(C4CCN(C)CC4)cc3)nc12` [Example 71, 6-(2-chloro-6-fluorophenyl)-8-methyl-2-{[4-(1-methylpiperidin-4-yl)phenyl]amino}pyrido[4,3-d]pyrimidin-5(6H)-one], the inhibition constant Ki worked out at 1.2 nM. On to `Cc1cn(-c2c(F)cccc2Cl)c(=O)c2cnc(Nc3ccc4c(c3)CNCC4(C)C)nc12` [Example 73, 6-(2-chloro-6-fluorophenyl)-2-[(4,4-dimethyl-1,2,3,4-tetrahydroisoquinolin-7-yl)amino]-8-methylpyrido[4,3-d]pyrimidin-5(6H)-one], for which the inhibition constant (Ki) came out at 1.5 nM.
